From patent publication US6936607B2, “2,4,6-Triaminopyrimidines for the treatment of depression and/or anxiety” (H. Lunobeck A/S, priority 2002, dated 2005)

The compounds below were run against T1, human GalR3 receptor (Homo sapiens, UniProt O60755) (assay: Radioligand binding assay at cloned human GalR3 receptor). Conditions: Binding Data; membranes from LM(tk-) cells stably transfected with the human GalR3 receptor.
T1 construct: expressed in transfected cells; host or cells: mouse fibroblast LM(tk-) cells, stably transfected; membranes
T1 sequence (O60755 1-368): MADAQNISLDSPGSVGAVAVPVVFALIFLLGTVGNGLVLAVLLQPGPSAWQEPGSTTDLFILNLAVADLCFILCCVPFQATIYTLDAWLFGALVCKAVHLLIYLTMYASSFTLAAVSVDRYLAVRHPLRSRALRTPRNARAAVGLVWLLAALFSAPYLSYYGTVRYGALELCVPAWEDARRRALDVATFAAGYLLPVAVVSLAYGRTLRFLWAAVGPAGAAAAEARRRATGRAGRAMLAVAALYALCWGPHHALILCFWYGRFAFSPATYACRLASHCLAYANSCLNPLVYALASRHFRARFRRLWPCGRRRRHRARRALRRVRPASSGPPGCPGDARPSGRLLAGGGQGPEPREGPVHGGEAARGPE
Experimental: LM(tk-) cells were stably transfected with the human GalR3 receptor. cDNAs for the human and rat GalR3 receptors were transfected with a G-418 resistant gene into the mouse fibroblast LM(tk-) cell line by a calcium phosphate transfection method (Cullen, 1987). Membranes were harvested from stably transfected LM(tk-) cells. Adherent cells were washed twice in ice-cold phosphate buffered saline (138 mM NaCl, 8.1 mM Na2HPO4, 2.5 mM KCl, 1.2 mM KH2PO4, 0.9 mM CaCl2, 0.5 mM MgCl2, pH 7.4) and lysed by sonication in ice-cold sonication buffer (20 mM Tris-HCl, 5 mM EDTA, pH 7.7). Large particles and debris were cleared by low speed centrifugation (200×g, 5 min, 4° C.). Membranes were collected from the supernatant fraction by centrifugation (32,000×g, 18 min, 4° C.), washed with ice-cold hypotonic buffer, and collected again by centrifugation (32,000×g, 18 min, 4° C.). The final membrane pellet was resuspended by sonication into a small volume of ice-cold binding buffer (˜1 ml for every 5 plates: 10 mM NaCl, 20 mM HEPES, 0.22 mM KH2PO4, 1.26 mM CaCl2, 0.81 mM MgSO4, pH 7.4). Protein concentration was measured by the Bradford method (Bradford, 1976) using Bio-Rad Reagent, with bovine serum albumin as a standard. Membranes were held on ice for up to one hour and used fresh, or flash frozen and stored in liquid nitrogen. Membranes were prepared similarly from CHO cells. The methods to obtain the cDNA of the receptors, express said receptors in heterologous systems, and carry out assays to determine binding affinity are described as follows. Binding assays were performed according to the following published method: human GALR3 (PCT International Publication No. WO 02/060392).

Ki [nM]	Structure (SMILES)
114	Cc1ccc(Nc2cc(N(C)C)nc(NCc3ccccc3)n2)cc1 [Example 39, N^2-BENZYL-N^4,N^4-DIMETHYL-N^6-(4-METHYLPHENYL)-2,4,6-PYRIMIDINE TRIAMINE]
314	CCN(CC)c1cc(C)ccc1Nc1cc(N(C)C)nc(N2CCN(c3ccccn3)CC2)n1 [Example 44, N^4-[2-(DIETHYLAMINO)-4-METHYLPHENYL]-N^6,N^6-DIMETHYL-2-[4-(2-PYRIDINYL)-1-PIPERAZINYL]-4,6-PYRIMIDINEDIAMINE]
137	CCNc1cc(Nc2cc(N(C)C)nc(N3CCN(Cc4ccccc4)CC3)n2)ccc1C [Example 40, 2-(4-BENZYL-1-PIPERAZINYL)-N^4-[3-(ETHYLAMINO)-4-METHYLPHENYL]-N^6,N^6-DIMETHYL-4,6-PYRIMIDINEDIAMINE]
42	CN(C)c1cc(Nc2cccc(OCc3ccccc3)c2)nc(N(C)CC2CCCO2)n1 (centres unmarked) [Example 35, N^4-[3-(BENZYLOXY)PHENYL]-N^2,N^6,N^6-TRIMETHYL-N^2-(TETRAHYDRO-2-FURANYLMETHYL)-2,4,6-PYRIMIDINETRIAMINE]
103	Cc1ccc(Nc2cc(N(C)C)nc(N3C[C@@H](C)O[C@@H](C)C3)n2)cc1N(C)Cc1ccccc1 [Example 49, N^4-{3-[BENZYL(METHYL)AMINO]-4-METHYLPHENYL}-2-[CIS-2,6-DIMETHYIMORPHOLINYL]-N^6,N^6-DIMETHYL-4,6-PYRIMIDINEDIAMINE]
81	C[C@@H]1CN(c2nc(Nc3ccc(Cl)c(Cl)c3)cc(N(C)C)n2)C[C@H](C)O1 [Example 51, N^4-(3,4-DICHLOROPHENYL)-2-(CIS-2,6-DIMETHYLMORPHOLINYL)-N^6,N^6-DIMETHYL-4,6-PYRIMIDINEDIAMINE]
97	Cc1ccc(Nc2cc(N(C)C)nc(N3CCN(c4cccc(Cl)c4)CC3)n2)cc1C [Example 32, 2-[4-(3-CHLOROPHENYL)-1-PIPERAZINYL]-N^4-(3,4-DIMETHYLPHENYL)-N^6,N^6-DIMETHYL-4,6-PYRIMIDINEDIAMINE]

More lines, now with the values behind:

Structure (SMILES)	Ki [nM]
CN(C)c1cc(Nc2ccc(SC(F)(F)F)c(Cl)c2)nc(N2CCN(c3ccc(Cl)cc3)CC2)n1 [Example 30, 2-[4-(4-CHLOROPHENYL)-1-PIPERAZINYL]-N^4-{3-CHLORO-4-[TRIFLUOROMETHYL) SULFANYL]PHENYL}-N^6,N^6-DIMETHYL-4,6-PYRIMIDINEDIAMINE]	138
COc1cccc(Nc2cc(N(C)C)nc(N3CCN(c4ccccc4Cl)CC3)n2)c1 [Example 11, 2-[4-(2-CHLOROPHENYL)-1-PIPERAZINYL]-N^4-(3-METHOXYPHENYL)-N^6,N^6-DIMETHYL-4,6-PYRIMIDINEDIAMINE]	62
CN(C)c1cc(Nc2ccc(C3CCCCC3)cc2)nc(N2CCN(c3ccc(Cl)cc3)CC2)n1 [Example 10, 2-[4-(4-CHLOROPHENYL)-1-PIPERAZINYL]-N^4-(4-CYCLOHEXYLPHENYL)-N^6,N^6-DIMETHYL-4,6-PYRIMIDINEDIAMINE]	47
CN(C)c1cc(Nc2ccc(SC(F)(F)F)c(Cl)c2)nc(N2CCN(c3ccccc3F)CC2)n1 [Example 14, N^4-{3-CHLORO-4-[(TRIFLUOROMETHYL)SULFANYL]PHENYL}-2-[4-(2-FLUOROPHENYL)-1-PIPERAZINYL]-N^6,N^6-DIMETHYL-4,6-PYRIMIDINEDIAMINE]	158
CN(C)c1cc(Nc2ccc3c(c2)CCC3)nc(N2CCN(c3ccccc3F)CC2)n1 [Example 12, N^4-(2,3-DIHYDRO-1H-INDEN-5-YL)-2-[4-(2-FLUOROPHENYL)-1-PIPERAZINYL]-N^6,N^6-DIMETHYL-4,6-PYRIMIDINEDIAMINE]	75
Cc1ccc(Nc2cc(N(C)C)nc(N3CCN(c4ccccc4Cl)CC3)n2)cc1C [Example 17, 2-[4-(2-CHLOROPHENYL)-1-PIPERAZINYL]-N^4-(3,4-DIMETHYLPHENYL)-N^6,N^6-DIMETHYL-4,6-PYRIMIDINEDIAMINE]	57
Cc1ccc(Nc2cc(N(C)C)nc(N3CCN(c4ccc(Cl)cc4)CC3)n2)cc1C [Example 23, 2-[4-(4-CHLOROPHENYL)-1-PIPERAZINYL]-N^4-(3,4-DIMETHYLPHENYL)-N^6,N^6-DIMETHYL-4,6-PYRIMIDINEDIAMINE]	129
